Experimental data from patent US8338473B2, “Derivatives of psammaplin A, a method for their synthesis and their uses for the prevention or treatment of cancer” (Centre National de la Recherche Scientifique, priority 2007, dated 2012).
pIC50: −log10 of the molar value.

Legend:
TRAIL promoter = assay: Histone H3 acetylation at the TRAIL locus (Chip and qPCR) in U937 cells; assay type: cell-based, human; conditions: U937, time course
Procedure: FIG. 5: a) Analysis of the histone H3 acetylation levels on the TRAIL promoter regulatory region and on the TRAIL gene first intron carried out Chip and qPCR in U937 cells after the indicated time course with UVI5008; the ‘NoAb’ represents the negative control; b) TRAIL mRNA expression after the indicated times of incubation with UVI5008; G6PDH levels have been used for equal loading; c) TRAIL protein expression levels measured by ELISA assay in U937 cells after 24 hrs treatment with UVI5008.

p16INK4a = assay: p16 expression levels in U937 cells; assay type: cell-based, human; conditions: U937, 24 hrs
Procedure: FIG. 2: a) Methylation specific PCR for the RARβ gene after 16 and 24 hrs of treatment with the indicated compounds; b) Methylation specific PCR for the p16 gene after 24 hrs of the indicated treatments. Samples are representative of real duplicates; c) p16 expression levels in U937 cells after 24 hrs with the indicated treatments; d) DNMT enzymatic in vitro assay carried out with 1.5 and 50 μM of the indicated compounds;
For the determination of p21^WAF1/CIP1 and p16^INK4 100 μg of total protein extracts were separated on a 15% polyacrylammide gels and blotted. Western blots were shown for p21 (Transduction Laboratories, dilution 1:500), p16 (Santa Cruz) and total ERKs (Santa Cruz) were used to normalise for equal loading. For alpha-tubulin acetylation 25 μg of total protein extracts were separated on a 10% polyacrylamide gels and blotted. Western blots were shown for acetylated alpha-tubulin (Sigma, dilution 1:500) and total ERKs (Santa Cruz) or total tubulin (Sigma) were used to normalise for equal loading.

human recombinant SIRT1 = human recombinant SIRT1 (Homo sapiens, UniProt Q96EB6); assay: SIRT activity assay, SIRT1; assay type: biochemical
Procedure: FIG. 13A: % of SIRT1 and SIRT2 activity with controls, sodium suramine, a sirtuin inhibitor, and resveratrol a SIRT1 activator, and with UVI5008 at concentrations of 50 μM and 5 μM.
The SIRT activity assay was performed using the human recombinant SIRT1 and SIRT2. SIRT1 (1 U/well) or SIRT2 (5 U/well), respectively, were incubated (37° C. for 1 h) with the SIRT1/2 substrate (corresponding to a p53 acetylated peptide) in the presence of NAD^+ and various concentrations of tested compounds (sirtuins activators or inhibitors). Activity was measured as fluorescence intensity. As internal controls, sodium suramin, a sirtuin inhibitor, and resveratrol, a SIRT1 activator, have been included. The fluorescence was measured on a fluorometric reader (Inphinite 200 TECAN) with excitation set at 360 nm and emission detection set at 460 nm

[1] = tested on: U937 acute myeloid leukemia cell line; assay: Cell cycle analysis in U937 cells; assay type: cell-based, human; conditions: U937, 30 hrs
Procedure: (§1) FIG. 1: a) Cell cycle analysis of U937 cells treated for 30 hrs with the indicated compounds used at 1 and 5 μM; b) Caspase 3 apoptotic assay of the indicated compounds after 24 hrs of treatment in the U937 cells; c) Tubulin acetylation and p21 expression levels at 6 and 16 hrs after treatment with the indicated compounds; total tubulin expression levels are used for equal loading; d) Histone H3 acetylation and K9 H3 methylation expression levels at 6 and 16 hrs after treatment with the indicated compounds; total tubulin expression levels are used for equal loading; e) K9, K14, K18 histone H3 acetylation expression levels at 6 and 16 hrs after treatment with the indicated compounds; total ERKs expression levels are used for equal loading; f) HDAC1 enzymatic assay: IP-HDAC1 is incubated with the indicated inhibitors for 24 Hrs; activity is measured as ^3H-acetyl release; g) HDAC4 enzymatic assay: IP-HDAC4 is incubated with the indicated inhibitors for 24 hrs; activity is measured as ^3H-acetyl release.
FIG. 3: a) Cell cycle and apoptosis analysis carried out in U937 cells after 24 hrs with the indicated compounds; values are media of independent triplicates; b) CD11c expression analysis carried out in U937 cells with the indicated compounds; values are media of independent duplicates; c) Tubuline acetylation and p21 expression levels in U937 cells after 24 hrs with the indicated treatments; total ERKs expression levels are used for equal loading; d) acetylation of histone H3 under the conditions indicated in (c).
Human leukemia cell line U937 was propagated in RPMI medium supplemented with 10% FBS (Foetal bovine serum; Hyclone) and antibiotics (100 U/mL penicillin, 100 μg/mL streptomycin and 250 ng/mL amphotericin-B). Cells were kept at the constant concentration of 200000 cells per milliliter of culture medium. For AML samples, bone marrow containing 80% to 90% leukemic blasts was purified over Ficoll. This study was approved by the Ethical Committee of the Second University of Naples.
MS-275 (Schering A G) was dissolved in ethanol and used at 5×10^−6M; valproic acid (VPA; Sigma) was used at 1 mM. All other compounds described were dissolved in DMSO (Sigma-Aldrich) and used at 1 or 5 μM.
2.5×10^5 cells were collected and resuspended in 500 μL of a hypotonic buffer (0.1% Triton X-100, 0.1% sodium citrate, 50 μg/mL propidium iodide, RNAse A). Cells were incubated in the dark for 30 min. Samples were acquired on a FACS-Calibur flow cytometer using the Cell Quest software (Becton Dickinson) and analysed with standard procedures using the Cell Quest software (Becton Dickinson) and the ModFit LT version 3 Software (Verity). All the experiments were performed 3 times.

[2] = tested on: cancer cell lines A-375, DU145 and HCT-116; assay: Dose response curves, anti-proliferative activity on cancer cell lines; assay type: cell-based; conditions: range over A-375, DU145, HCT-116; read-out: IC50 values, anti-proliferative activity on different types of cancer cell lines
Procedure: HCT-116, A-375 and DU-145 cells were plated at 8000 cells per well in 96-well transparent cell culture grade plates (Corning). Plates were kept in the humidified CO2 (5%) incubator overnight so that cells get attached to the bottom. […] Viable cells cleave the MTT tetrazolium ring into a dark blue formazan reaction product, whereas dead cells remain colorless. The MTT-containing medium was gently removed and DMSO was added in each well. After shaking, the plates were read in absorbance at 540 nm. All results are expressed as the average of three wells. Percent cytotoxicity was measured of each compound and represented in terms of its IC50 values.
Anti-proliferative activity on cancer cell lines A-375, DU145 and HCT-116: […]

HDAC1 = HDAC1 (Homo sapiens, UniProt Q13547); assay: HDAC1 enzymatic assay (IP-HDAC1, 3H-acetyl release); assay type: biochemical; conditions: IP-HDAC1 incubated with inhibitor 24 hrs
Procedure: as §1

p53 = p53 acetylation in MCF7 cells (Western blot); assay type: cell-based, human; conditions: MCF7, 6 hrs, co-treatment with Etoposide 25 μM
Procedure: FIG. 13B: western blot of MCF7 cells treated with etoposide alone or in presence of sirtinol (a known SIRT2 inhibitor) and with uvi5008 concentrations of 50 μM and 5 μM.
MCF7 cells (human breast cancer cells) have been growth following standard procedure and have been treated for 6 hrs with the indicated compounds in presence of 25 μM Etoposide. Total protein extracts have been run on SDS gel and blotted. Western Blot has been carried out by using the anti p53 ac382 (Abcam) following standard procedures. ERKs (Santa Cruz) have been used for equal loading control.

Chain of HDAC1 (Q13547 whole entry, species assumed): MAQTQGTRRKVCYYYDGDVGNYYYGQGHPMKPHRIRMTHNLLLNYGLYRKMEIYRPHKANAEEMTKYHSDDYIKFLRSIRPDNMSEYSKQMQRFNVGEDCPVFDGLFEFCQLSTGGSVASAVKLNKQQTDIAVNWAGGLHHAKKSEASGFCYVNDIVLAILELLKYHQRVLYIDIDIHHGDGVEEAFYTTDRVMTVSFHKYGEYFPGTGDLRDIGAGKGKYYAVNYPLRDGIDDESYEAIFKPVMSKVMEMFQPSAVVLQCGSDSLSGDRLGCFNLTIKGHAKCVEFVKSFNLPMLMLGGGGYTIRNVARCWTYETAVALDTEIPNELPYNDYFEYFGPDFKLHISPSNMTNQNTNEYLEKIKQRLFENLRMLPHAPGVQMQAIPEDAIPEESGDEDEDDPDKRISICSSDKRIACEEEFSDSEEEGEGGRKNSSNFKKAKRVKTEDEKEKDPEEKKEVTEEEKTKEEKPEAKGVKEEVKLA
Chain of human recombinant SIRT1 (Q96EB6 whole entry): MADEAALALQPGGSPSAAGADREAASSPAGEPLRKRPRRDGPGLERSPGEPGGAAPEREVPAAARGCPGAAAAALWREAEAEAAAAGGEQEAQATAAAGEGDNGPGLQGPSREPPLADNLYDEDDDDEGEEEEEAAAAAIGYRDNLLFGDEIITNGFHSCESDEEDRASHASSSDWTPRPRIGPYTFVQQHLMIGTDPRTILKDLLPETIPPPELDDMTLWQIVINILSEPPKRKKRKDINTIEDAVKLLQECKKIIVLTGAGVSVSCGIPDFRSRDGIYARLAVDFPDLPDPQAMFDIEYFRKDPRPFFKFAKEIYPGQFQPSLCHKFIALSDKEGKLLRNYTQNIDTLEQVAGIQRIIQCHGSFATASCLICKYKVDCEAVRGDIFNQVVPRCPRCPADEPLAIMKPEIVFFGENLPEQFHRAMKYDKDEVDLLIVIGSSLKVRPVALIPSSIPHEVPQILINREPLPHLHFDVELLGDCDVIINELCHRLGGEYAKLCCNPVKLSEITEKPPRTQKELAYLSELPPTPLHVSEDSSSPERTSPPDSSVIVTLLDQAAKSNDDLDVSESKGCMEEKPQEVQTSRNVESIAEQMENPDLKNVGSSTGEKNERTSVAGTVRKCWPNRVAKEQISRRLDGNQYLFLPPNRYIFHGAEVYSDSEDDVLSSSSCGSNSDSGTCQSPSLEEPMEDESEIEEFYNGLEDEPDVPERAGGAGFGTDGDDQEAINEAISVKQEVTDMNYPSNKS

O=C(NCCSSCCNC(=O)C(Cc1c[nH]c2ccc(Br)cc12)=NO)C(Cc1c[nH]c2ccc(Br)cc12)=NO [UVI5008]
H3K9 acetylation of the chromatin at the TRAIL promoter (TRAIL promoter): rapid dramatic H3K9 acetylation | p16INK4a gene expression (p16INK4a): de-silenced | pIC50 (human recombinant SIRT1): 5.05 | cell cycle arrest, position of the block ([1]; 1 μM): arrests cells in G2-M | cell cycle arrest, position of the block ([1]; 1 and 5 μM): arrests in the S and G2 phases | pIC50 [2]: 5.52 to 5.82 | HDAC1 inhibition (HDAC1): blocks HDAC1 activity nearly quantitatively | p53 acetylation levels (readout of SIRT inhibition) (p53): hyperacetylation
